Data from patent publication EP0318859A2, “N-substituted mercaptopropanamide derivatives” (Dainippon Pharmaceutical Co., Ltd., priority 1987, dated 1989).

Legend:
Female Std:ddy mice = assay: Analgesic activity (mouse phenylquinone writhing test); type: in vivo; details: po, 30 minutes before i.p. phenylquinone, reduction in writhes greater than 50 % of vehicle control = effective, Litchfield and Wilcoxon, read-out: ED₅₀
Method: (1) Analgesic activity (mouse phenylquinone writhing test)
Female Std:ddy mice (weighing 18 - 22 g) were used. Each animal was given intraperitoneally 10 ml/kg of 0.03 % phenylquinone in 5 % aqueous ethanol, and the number of writhes was counted for 15 minutes, beginning 5 minutes after the injection of phenylquinone. Test compounds, suspended or dissolved in 0.5 % gum tragacanth aqueous solution, were given orally 30 minutes before the injection of phenylquinone. A reduction in writhes counts greater than 50 % of the vehicle control value was considered to be effective. The ED₅₀-value was calculated from the effective rate according to the method of Litchfield and Wilcoxon.

enkephalinase [1] = assay: Enkephalinase inhibitory activity in vivo (potentiation of the analgesic activity of DAME, tail pressure pain); details: p.o., 30 minutes before intracisternal DAME; pressure pain threshold measured 5 minutes after DAME; male Std:ddy mice
Method: (2) Enkephalinase inhibitory activity in vivo
(Potentiation of the analgesic activity of DAME)
Pressure pain was induced by pressing the tail of male Std:ddy mice (weighing 20 - 26 g) using an apparatus for pressure measurement. The pressure pain threshold (biting response) was measured as mm. Test compound, dissolved or suspended in 0.5 % gum tragacanth aqueous solution, was given orally 30 minutes before intracisternaly administration of D-Ala²-Met⁵-enkephalin (DAME). Five minutes after administration of DAME, the pressure pain threshold was measured, and the potentiation activity of test compounds on the analgesic effect of DAME was tested.

enkephalinase [2] = target: T1, enkephalinase (Rattus norvegicus, UniProt P07861); assay: Enkephalinase inhibitory activity in vitro ([³H]-leucine-enkephalin degradation); type: biochemical, rats; details: rat striatum enkephalinase; substrate [³H]-leucine-enkephalin 20 nM; 1 hour at 37°C; read-out: IC₅₀
T1 construct: Male Std:Wistar rats were decapitated and the striata were removed; from tissue; host or cells: rat striatum (membrane pellet, solubilised with 1 % Triton X-100, DEAE-cellulose fraction)
T1 sequence (P07861 1-750): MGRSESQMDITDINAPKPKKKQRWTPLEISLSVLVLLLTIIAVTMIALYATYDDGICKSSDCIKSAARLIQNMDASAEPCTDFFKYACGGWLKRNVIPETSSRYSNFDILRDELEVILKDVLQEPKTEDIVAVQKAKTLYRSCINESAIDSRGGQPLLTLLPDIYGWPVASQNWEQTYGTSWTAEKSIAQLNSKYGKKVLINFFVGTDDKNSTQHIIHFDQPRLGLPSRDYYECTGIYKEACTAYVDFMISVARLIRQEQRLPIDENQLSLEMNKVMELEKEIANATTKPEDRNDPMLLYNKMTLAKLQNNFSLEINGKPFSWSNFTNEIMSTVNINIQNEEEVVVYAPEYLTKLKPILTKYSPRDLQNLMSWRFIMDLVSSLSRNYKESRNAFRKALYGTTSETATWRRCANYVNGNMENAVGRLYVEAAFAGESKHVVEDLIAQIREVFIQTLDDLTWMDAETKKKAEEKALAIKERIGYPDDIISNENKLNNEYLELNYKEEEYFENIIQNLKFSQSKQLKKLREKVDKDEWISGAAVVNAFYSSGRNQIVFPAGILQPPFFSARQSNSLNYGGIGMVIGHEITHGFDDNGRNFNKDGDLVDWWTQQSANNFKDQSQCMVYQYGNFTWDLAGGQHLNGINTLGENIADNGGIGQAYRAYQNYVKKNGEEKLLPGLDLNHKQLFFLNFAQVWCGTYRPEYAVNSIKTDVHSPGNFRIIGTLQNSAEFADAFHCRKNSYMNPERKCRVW
Method: (3) Enkephalinase inhibitory activity in vitro
Enkephalin degrading enzymes were separated according to the method described by Gorenstein and Snyder (Life Science, 25, 2065 (1979)).
Male Std:Wistar rats were decapitated and the striata were removed. These were homogenized in 30 volumes of 50 mM Tris-HCl buffer (pH 7.4) and centrifuged for 15 minutes at 1,000 x g. The supernatant was centrifuged for 15 minutes at 50,000 x g. The pellet was washed three times with the same buffer and then suspended in 15 volumes of 50 mM Tris-HCl buffer (pH 7.4) containing 1 % Triton X-100, followed by incubation for 45 minutes at 37°C. After centrifugation for 1 hour at 100,000 x g, the supernatant was applied onto DEAE-cellulose ion exchange chromatography column. The fraction containing enkephalin dipeptidylcarboxypeptidase was used as enkephalinase sample.
(ii) Measurement of inhibitory activity
After preincubation of test compound and enkephalinase for 5 minutes at 37°C, [³H]-leucine-enkephalin (substrate) was added to the reaction mixture and then the mixture was incubated for 1 hour at 37°C (final volume: 100 µl, final concentration of substarate: 20 nM). Ice-cold 0.2N HCl was added to the mixture to stop the reaction. Substrate and metabolites were separated with TLC and Porapak Q® column by the method of Vogel and Alstein [FEBS Letters, 80, 332 (1977)]. Enzyme activity was estimated from the production rate of [³H]-Tyr-Gly-Gly. The IC₅₀-value of test compounds was calculated from the inhibitory rates, estimated from the difference between the enzyme activities in the absence and the presence of test compound.

CC(=O)SCC(Cc1ccccc1)C(=O)Nc1cc(C)cc(C(=O)O)c1 (stereo not shown) [Example 1, 3-[(2-acetylthiomethyl-3-phenylpropionyl)amino]-5-methylbenzoic acid]
ED50 (Female Std:ddy mice): 22.3 mg/kg

Cc1cc(NC(=O)C(CS)Cc2ccccc2)cc(C(=O)O)c1 (stereo not shown) [Example 2, 3-[(2-mercaptomethyl-3-phenylpropionyl)amino]-5-methylbenzoic acid]
ED50 (Female Std:ddy mice): 16.6 mg/kg | ED₅₀ (enkephalinase [1]): 20.2 mg/kg | IC50 (enkephalinase [2]): 5.4 nM

CC(=O)SCC(Cc1ccccc1)C(=O)Nc1cccc(C(=O)O)c1C (stereo not shown) [Example 3, 3-[(2-acetylthiomethyl-3-phenylpropionyl)amino]-2-methylbenzoic acid]
ED50 (Female Std:ddy mice): 21.6 mg/kg

Cc1c(NC(=O)C(CS)Cc2ccccc2)cccc1C(=O)O (stereo not shown) [Example 7, 3-[(2-mercaptomethyl-3-phenylpropionyl)amino]-2-methylbenzoic acid]
ED50 (Female Std:ddy mice): 17.9 mg/kg | ED₅₀ (enkephalinase [1]): 38.3 mg/kg | IC50 (enkephalinase [2]): 7.5 nM

CCc1cc(NC(=O)C(CSC(C)=O)Cc2ccccc2)cc(C(=O)O)c1 (stereo not shown) [Example 64, 3-[(2-acetylthiomethyl-3-phenylpropionyl)amino]-5-ethylbenzoic acid]
ED50 (Female Std:ddy mice): 11 mg/kg | ED₅₀ (enkephalinase [1]): 20.8 mg/kg

CCc1cc(NC(=O)C(CS)Cc2ccccc2)cc(C(=O)O)c1 (stereo not shown) [Example 65, 3-[(2-mercaptomethyl-3-phenylpropionyl)amino]-5-ethylbenzoic acid]
ED50 (Female Std:ddy mice): 22.9 mg/kg | IC50 (enkephalinase [2]): 4.6 nM

CC(=O)SCC(CC(C)C)C(=O)Nc1cccc(C(=O)O)c1C (stereo not shown) [Example 175, 3-[(2-acetylthiomethyl-4-methylpentanoyl)amino]-2-methylbenzoic acid]
ED50 (Female Std:ddy mice): 21.1 mg/kg

CC(=O)SCC(CC(C)C)C(=O)Nc1cc(C)cc(C(=O)O)c1 (stereo not shown) [Example 176, 3-[(2-acetylthiomethyl-4-methylpentanoyl)amino]-5-methylbenzoic acid]
ED50 (Female Std:ddy mice): 22.9 mg/kg

CC(C)CC(CS)C(=O)Nc1cccc(C(=O)O)c1 (stereo not shown) [Example 186, 3-[(2-mercaptomethyl-4-methylpentanoyl)amino]benzoic acid]
ED50 (Female Std:ddy mice): 15 mg/kg | IC50 (enkephalinase [2]): 8.4 nM

Cc1c(NC(=O)C(CS)CC(C)C)cccc1C(=O)O (stereo not shown) [Example 187, 3-[(2-mercaptomethyl-4-methylpentanoyl)amino]-2-methylbenzoic acid]
ED50 (Female Std:ddy mice): 20.1 mg/kg | IC50 (enkephalinase [2]): 7.8 nM

O=C(O)CNC(=O)C(CS)Cc1ccccc1 (stereo not shown) [Thiorphan, [(D,L)-2-mercaptomethyl-3-phenylpropionyl]glycine, reference compound]
ED50 (Female Std:ddy mice): 137 mg/kg
